Measurements: patent publication EP1641451B1, “METHOD FOR PHOTODYNAMIC INACTIVATION OF PATHOGENS USING ALA” (MACO PHARMA, priority 2003, dated 2005)

Experiments:
Format in all cases: cell-based
plaquettes [1] = assay: Platelet functionality: collagen aggregation test (thrombo-aggregometer, turbidimetry); details: for % d'aggrégation: CPA 10 g/L proteins
Method: (§1) Dans cet exemple, deux tests ont été effectués afin d'évaluer la fonctionnalité des plaquettes en présence de différentes concentrations d'ALA après illumination à l'aide des lampes UVA (365 nm).
Le second test est un test d'agrégation au collagène. Ce test est réalisé à l'aide d'un thrombo-agrégomètre (SEFAM, Regulest, Fleurange, France). L'activation plaquettaire par un agoniste (collagène) est estimée in vitro par turbidimétrie, en enregistrant en continu à 37°C et sous agitation, la transmission d'un faisceau de lumière à travers la suspension plaquettaire. Le regroupement des plaquettes en amas de plus en plus volumineux s'accompagne d'un éclaircissement progressif du milieu. Les résultats sont rendus en pourcentage d'agrégation en fonction du temps, le 100% d'agrégation correspondant au plasma pauvre en plaquettes et le 0% d'agrégation correspondant à l'échantillon avant l'ajout de l'agoniste. L'enregistrement de la transmission lumineuse est déclenché au moment de l'ajout d'un faible volume de l'agoniste à l'échantillon. Ainsi, nous pouvons visualiser le temps de latence, le changement de forme des plaquettes puis l'agrégation qui peut être stable ou réversible.
(§2) Ces deux tests ont été réalisés sur un CPA ajusté à 10 g/L de protéines en présence de concentration croissante d'ALA après 1 h30 d'illumination à 365 nm.
(§3) Le même test a été réalisé sans illumination (1 h30 d'agitation douce à l'obscurité)
(§4) Un test d'agrégation et une inspection visuelle du tournoiement ont été réalisées sur un CPA ajusté à 10 g/L de protéines en présence de PpX sel disodique dans du NaOH 1 N 0,1 % (après 30 minutes d'illumination à 365 nm). Le nombre de plaquettes par poche de 8 ml est de 7,6.10^9.

Escherichia coli = assay: Bacterio-attenuation test in contaminated CPA, photodynamic treatment at 365 nm
Method: (§5) Les bactéries sont injectées dans les échantillons à une concentration finale de 1 bactérie pour 50 000 plaquettes. Les bactéries sont mises en culture dans un bouillon Thyoglycolate-Resazurine (ref: 42074, Biomérieux Marcy l'Etoile, France) (0,5 mL de suspension bactérienne en bouillon ou une colonie sur gélose dans 9 mL de bouillon). Elles sont incubées 24 h à 37°C pour qu'elles soient en phase de croissance lors de leur utilisation. Avant leur utilisation, le bouillon de culture est centrifugé à 2500 g pendant 10 min. à 21°C, le culot est repris dans du NaCl 0,9 % et celui-ci est lavé 3 fois à 2500 g pendant 10 min. à 21 °C.
(§6) Le titre bactérien de la suspension lavée et diluée est évalué par une lecture de densité optique à 630 nm. Une dilution de la suspension bactérienne est ensuite réalisée pour obtenir une concentration finale de 1 bactérie pour 50 000 plaquettes.
(§7) Pour réaliser les tests de bactério-atténuation, les CPA dilués sont aliquotés dans la solution SSP (MacoPharma, Tourcoing, France) pour obtenir une concentration finale en protéines de 10 g/L dans des poches en PVC. Puis 1 mL de suspension bactérienne est injecté. Le volume final contenu dans les poches est de 8 mL. Le tout est homogénéisé pour un meilleur contact entre les plaquettes et les bactéries.
(§8) L'illumination se fait à l'aide d'une lampe UVA comportant deux tubes (réf. VL-215BL, Vilber Lourmat, France) génératrice de rayons UV 365 nm et de lumière visible d'une intensité de 108 µW/cm^2 à une distance de 1 m de l'échantillon. La lampe est disposée à une distance de 13 cm des poches à traitées. L'illumination se fait à 4°C. La lampe délivre une dose de 23 J/cm^2 en 1 h.
(§9) Après illumination, une numération bactérienne est réalisée pour mesurer la diminution du tire bactérien dans les poches traitées. Pour cela, 1 mL de la dilution la plus appropriée est étalée sur des géloses nutritives Trypcase-soja (ref : 43011, boîtes de 90 mm de diamètre, Biomérieux, Marcy l'Etoile, France). Les géloses sont ensuite incubées 24 h à 37 °C pour pouvoir effectuer un comptage. Les résultats sont exprimés en ufc/mL.
Des tests de bactério-atténuation ont été effectués sur E. coli. Les tests sont réalisés sur des CPA ajustés à 10 g/L de protéines. Le nombre de plaquettes par poche de 8 ml est de 4,7 10^9.
Les poches sont incubées 1 h à 37°C avant d'être irradiées à 365 nm (Fig. 6).
Sans incubation, les résultats sont les suivants (Fig. 7) : […]

plaquettes [2] = assay: Platelet functionality: visual inspection of swirling (tournoiement) of the CPA; details: ALA 4 mM; CPA 10 g/L proteins; after 1 h30 illumination at 365 nm
Excerpt: as §1
Le premier test est la visualisation du tournoiement ou « swirling », c'est-à-dire l'inspection visuelle du CPA à travers une source lumineuse (phénomène lié à la présence de formes discoïdes dans la suspension plaquettaire).
as §2, §3, §4

Klebsiella pneumoniae = assay: Bacterio-attenuation test in contaminated CPA, photodynamic treatment at 365 nm
Method: as §5, §6, §7, §8, §9
Des tests de bactério-atténuation ont été effectués sur Klebsiella pneumoniae. Les tests sont réalisés sur des CPA ajustés à 10 g/L de protéines. Le nombre de plaquettes par poche de 8 mL est de 10,5.10^9.
Les poches sont incubées 1h à température ambiante puis illuminées par irradiation à 365 nm (Fig. 4 et 5).

## NCC(=O)CCC(=O)O [ALA, acide 5-aminolévulinique]
Plaquettes [1]; ALA 1 mM, after 1 h30 illumination at 365 nm, collagen
  % d'aggrégation: 80%
Plaquettes [1]; ALA 1 mM, no illumination, 1 h30 in the dark, collagen
  % d'aggrégation: 84%
Plaquettes [1]; ALA 2 mM, after 1 h30 illumination at 365 nm, collagen
  % d'aggrégation: 69%
Plaquettes [1]; ALA 2 mM, no illumination, 1 h30 in the dark, collagen
  % d'aggrégation: 84%
Plaquettes [1]; ALA 3 mM, after 1 h30 illumination at 365 nm, collagen
  % d'aggrégation: 76%
Plaquettes [1]; ALA 3 mM, no illumination, 1 h30 in the dark, collagen
  % d'aggrégation: 82%
Plaquettes [1]; ALA 4 mM, after 1 h30 illumination at 365 nm, collagen
  % d'aggrégation: 53%
Plaquettes [1]; ALA 4 mM, no illumination, 1 h30 in the dark, collagen
  % d'aggrégation: 76%
Plaquettes [1]; ALA 5 mM, after 1 h30 illumination at 365 nm, collagen
  % d'aggrégation: 26%
Plaquettes [1]; ALA 5 mM, no illumination, 1 h30 in the dark, collagen
  % d'aggrégation: 78%
Plaquettes [1]; illumination of CPA with too high a concentration of ALA
  fonctionnalité des plaquettes: semble faire perdre de leur fonctionnalité aux plaquettes
Escherichia coli; ALA 5 mM, Incub 1h at 37°C
  titre bactérien E. Coli: 231 10^-2 ufc/ml
Escherichia coli; ALA 5 mM, Incub 1h at 37°C then Irr 1h30 at 365 nm
  titre bactérien E. Coli: 1 10^-2 ufc/ml
Escherichia coli; ALA 5 mM, Incub 1h at 37°C then Irr. 1h at 365 nm
  titre bactérien E. Coli: 17 10^-2 ufc/ml
Escherichia coli; ALA 5 mM, T0, CPA 10 g/L proteins, series with incubation
  titre bactérien E. Coli: 172 10^-2 ufc/ml
Escherichia coli; ALA 5 mM, T0, without incubation
  titre bactérien E. Coli: 183 10^-2 ufc/ml
Escherichia coli; ALA 5 mM, without incubation, Irr 1 h30 at 365 nm
  titre bactérien E. Coli: 2 10^-2 ufc/ml
Escherichia coli; ALA 5 mM, without incubation, Irr. 1h at 365 nm
  titre bactérien E. Coli: 48 10^-2 ufc/ml
Escherichia coli; ALA (5 mM), even without incubation, irradiation at 365 nm
  inactivation de E.coli: efficace
Escherichia coli; CPA irradiated 1 h and 1 h30 at 365 nm with ALA (5 mM), after 1 h incubation at 37°C
  inactivation de E.coli: obtenue
Plaquettes [2]
  Swirling: Faible+
Klebsiella pneumoniae; ALA 1 mM, Incub. 1 h at room temperature
  titre bactérien Klebsiella: 187 10^-2 ufc/ml
Klebsiella pneumoniae; ALA 1 mM, Incub. 1 h then Irr. 1h30 at 365 nm
  titre bactérien Klebsiella: 5 10^-2 ufc/ml
Klebsiella pneumoniae; ALA 1 mM, Incub. 1 h then Irr. 1 h at 365 nm
  titre bactérien Klebsiella: 14 10^-2 ufc/ml
Klebsiella pneumoniae; ALA 1 mM, T0, CPA 10 g/L proteins
  titre bactérien Klebsiella: 201 10^-2 ufc/ml
Klebsiella pneumoniae; ALA 2 mM, Incub 1 h at room temperature
  titre bactérien Klebsiella: 163 10^-2 ufc/ml
Klebsiella pneumoniae; ALA 2 mM, Incub 1 h then Irr 1 h30 at 365 nm
  titre bactérien Klebsiella: 1 10^-2 ufc/ml
Klebsiella pneumoniae; ALA 2 mM, Incub 1 h then Irr. 1 h at 365 nm
  titre bactérien Klebsiella: 9 10^-2 ufc/ml
Klebsiella pneumoniae; ALA 2 mM, T0, CPA 10 g/L proteins
  titre bactérien Klebsiella: 159 10^-2 ufc/ml
Klebsiella pneumoniae; ALA 3 mM, Incub 1 h at room temperature
  titre bactérien Klebsiella: 168 10^-2 ufc/ml
Klebsiella pneumoniae; ALA 3 mM, Incub 1 h then Irr 1 h30 at 365 nm
  titre bactérien Klebsiella: 1 10^-2 ufc/ml
Klebsiella pneumoniae; ALA 3 mM, Incub 1 h then Irr. 1 h at 365 nm
  titre bactérien Klebsiella: 8 10^-2 ufc/ml
Klebsiella pneumoniae; ALA 3 mM, T0, CPA 10 g/L proteins
  titre bactérien Klebsiella: 179 10^-2 ufc/ml
Klebsiella pneumoniae; ALA 4 mM, Incub 1h at room temperature
  titre bactérien Klebsiella: 192 10^-2 ufc/ml
Klebsiella pneumoniae; ALA 4 mM, Incub 1h then Irr 1h30 at 365 nm
  titre bactérien Klebsiella: 1 10^-2 ufc/ml
Klebsiella pneumoniae; ALA 4 mM, Incub 1h then Irr. 1h at 365 nm
  titre bactérien Klebsiella: 6 10^-2 ufc/ml
Klebsiella pneumoniae; ALA 4 mM, T0, CPA 10 g/L proteins
  titre bactérien Klebsiella: 183 10^-2 ufc/ml
Klebsiella pneumoniae; ALA 5 mM, Incub. 1h at room temperature
  titre bactérien Klebsiella: 175 10^-2 ufc/ml
Klebsiella pneumoniae; ALA 5 mM, Incub. 1h then 'Irr 1h 1h30' at 365 nm
  titre bactérien Klebsiella: 0 10^-2 ufc/ml
Klebsiella pneumoniae; ALA 5 mM, Incub. 1h then 'Irr.' at 365 nm
  titre bactérien Klebsiella: 4 10^-2 ufc/ml
Klebsiella pneumoniae; ALA 5 mM, T0, CPA 10 g/L proteins
  titre bactérien Klebsiella: 178 10^-2 ufc/ml
Klebsiella pneumoniae; CPA irradiated 1h and 1 h30 at 365 nm with ALA 1-5 mM, no significant difference between concentrations
  inactivation de K. pneumoniae: obtenue

## protoporphyrine IX [PpIX]
Plaquettes [1]; PpIX 1 µM, after 30 minutes illumination at 365 nm
  % d'aggrégation: 53%
Plaquettes [1]; PpIX 5µM, after 30 minutes illumination at 365 nm
  % d'aggrégation: 16%
Plaquettes [1]; PpIX 10 µM, after 30 minutes illumination at 365 nm
  % d'aggrégation: 16%
Plaquettes [1]; PpIX 20 µM, after 30 minutes illumination at 365 nm
  % d'aggrégation: 15%
Escherichia coli; PpIX 10 µM, irradiation at 365 nm
  inactivation de E.coli: inefficace
Escherichia coli; PpIX 10 µm, T0, without incubation
  titre bactérien E. Coli: 166 10^-2 ufc/ml
Escherichia coli; PpIX 10 µm, without incubation, Irr 1 h30 at 365 nm
  titre bactérien E. Coli: 108 10^-2 ufc/ml
Escherichia coli; PpIX 10 µm, without incubation, Irr. 1h at 365 nm
  titre bactérien E. Coli: 171 10^-2 ufc/ml
Klebsiella pneumoniae; PpIX 10µM, same conditions (incubation 1h, irradiation 1h and 1h30 at 365 nm)
  inactivation de K. pneumoniae: ne permet pas l'inactivation
Klebsiella pneumoniae; PpIX 10 µM, Incub 1h at room temperature
  titre bactérien Klebsiella: 162 10^-2 ufc/ml
Klebsiella pneumoniae; PpIX 10 µM, Incub 1h then Irr 1h30 at 365 nm
  titre bactérien Klebsiella: 203 10^-2 ufc/ml
Klebsiella pneumoniae; PpIX 10 µM, Incub 1h then Irr. 1h at 365 nm
  titre bactérien Klebsiella: 178 10^-2 ufc/ml
Klebsiella pneumoniae; PpIX 10 µM, T0, CPA 10 g/L proteins
  titre bactérien Klebsiella: 181 10^-2 ufc/ml
